In patent US4613604A, “Hydroxymethyl derivatives of 5-benzylacyclouridine and 5-benzoyloxybenzylacyclouridine and their use as potentiators for 5-fluoro-2'-deoxyuridine” (Brown University Research Foundation, priority 1985, dated 1986):
Where “and” joins values, the source holds several entries; their conditions need not be identical. Equal entries are not always repeated. Where two headings read alike, the source gives them in different places.

Assays:
[1] = system: human pancreatic carcinoma (DAN); test: Growth inhibition of pancreatic carcinoma DAN cells in culture by FdUrd with or without potentiator; assay type: cell-based; details: for in vitro antineoplastic activity of FdUrd with potentiator, in words: DAN cells, combination with FdUrd; for effect of potentiator alone on the growth of DAN in culture: potentiator alone at 50 μM, no FdUrd
Method: Determination of the activities of HM-BAU and HM-BBAU as potentiators of FdUrd anti-neoplastic activity was carried out using a human pancreatic carcinoma (DAN) in culture. Details of the procedure are described in Chu et al., supra. Table 1 summarizes the effect of HM-BAU and HM-BBAU upon the inhibitory effect of FdUrd on the growth of pancreatic DAN cells in culture.
FdUrd alone at 0.1 and 0.3 μM inhibited the cell growth by 20% and 34% respectively.

[2] = Water solubility; assay type: physicochemical; details: in words
[3] = biological target: uridine phosphorylase; test: Inhibition of uridine phosphorylase from mouse liver (105,000×g supernatant of liver homogenate); assay type: biochemical; details: mouse liver enzyme; apparent Ki = Ki(1+[S]/Km); type of inhibition not characterized
Method: (§1) Testing of compounds HM-BAU and HM-BBAU as inhibitors of uridine phosphorylase was performed using 105,000×g supernatant of mouse liver and human liver homogenates. Enzyme assays were carried out as described in Niedzwicki et al., Biochem. Pharm. 31, 1857 (1982), supra. Apparent Ki values are related to Ki by the following equation: [formula] where Kis and Kii are the inhibition constants that would have been estimated from the replots of slope and intercept, respectively, of a Lineweaver-Burk plot vs [I]. If a compound is a competitive inhibitor with respect to the substrate uridine. Kii =.infin. and Kis =Ki. Therefore:
(§2) apparent Ki =Ki (1+[S]/Km)
(§3) Thus, the true Ki values would be lower than the apparent Ki values by a factor of (1+S/Km). It must be noted, however, that these compounds were not characterized with regard to the type of inhibition (i.e. competitive, non-competitive or uncompetitive), nor were they tested as substrates for uridine phosphorylase.

[4] = biological target: uridine phosphorylase; test: Inhibition of uridine phosphorylase from human liver (105,000×g supernatant of liver homogenate); assay type: biochemical; details: for Ki: human liver enzyme, apparent Ki = Ki(1+[S]/Km), type of inhibition not characterized; for inhibition of human liver uridine phosphorylase, in words: compared with BAU and BBAU
Method: as §1, §2, §3

[5] = background statement, in words; cited from earlier work
[6] = system: human lung carcinoma (LX-1); details: LX-1, in vitro; cited from earlier work
[7] = system: cleavage of FdUrd in certain tumor extracts; details: cited from earlier work
[8] = system: human pancreatic carcinoma (DAN); details: in vivo; cited from earlier work
[9] = system: human pancreatic carcinoma (DAN); details: in vitro; cited from earlier work
[10] = system: uridine phosphorylase; details: among the acyclouridines developed; cited from earlier work
[11] = system: human lung carcinoma (LX-1); details: LX-1, in vivo; cited from earlier work
[12] = potentiator 50 μM, added 5 minutes prior to FdUrd 0.1 μM, P < 0.001 vs control, p < 0.01 from one another
[13] = potentiator 50 μM, added 5 minutes prior to FdUrd 0.3 μM

water solubility [2] | Ki [3] | Ki [4] | SMILES | in vitro antineoplastic activity of FdUrd with potentiator, in words [1] | % Growth Inhibition of DAN cells in culture [1, 12] | % Growth Inhibition of DAN cells in culture [1, 13] | effect of potentiator alone on the growth of DAN in culture [1] | inhibition of human liver uridine phosphorylase, in words [4] | water solubility [5] | enhancement of antineoplastic activity of FdUrd [6] | inhibition of cleavage of FdUrd [7] | enhancement of antineoplastic activity of FdUrd [8] | enhancement of antineoplastic activity of FdUrd [9] | effectiveness as uridine phosphorylase inhibitor, in words [10] | enhancement of antineoplastic activity of FdUrd [11] | other results
water soluble | 320 nM | 650 nM | O=c1[nH]c(=O)n(COC(CO)CO)cc1Cc1cccc(OCc2ccccc2)c1 [HM-BBAU, 5-(m-Benzyloxybenzyl)-1-[(1,3-dihydroxy-2-propoxy)methyl]uracil] | significantly potentiated | 73.6 ± 0.3% and 74% | 83.2 ± 1.3% and 83% | do not affect the growth of DAN in culture | excellent inhibitors of this enzyme and superior to BAU and BBAU | – | – | – | – | – | – | – | % Growth Inhibition of DAN cells in culture ([1]; potentiator 50 μM, added 5 minutes prior to FdUrd 0.1 μM, P < 0.001 vs control, p < 0.01 from one another, listed as HN-BBAU): 74%; % Growth Inhibition of DAN cells in culture ([1]; potentiator 50 μM, added 5 minutes prior to FdUrd 0.3 μM, listed as HN-BBAU): 83%
– | – | – | O=c1[nH]c(=O)n(COCCO)cc1Cc1cccc(OCc2ccccc2)c1 [BBAU, 5-benzyloxybenzylacyclouridine] | – | – | – | – | – | not very water soluble | enhance the antineoplastic activity of FdUrd | inhibit the cleavage of FdUrd | enhance the antineoplastic activity of FdUrd | enhance the antineoplastic activity of FdUrd | particularly effective | enhance the antineoplastic activity of FdUrd | –
– | – | – | O=c1[nH]c(=O)n([C@H]2C[C@H](O)[C@@H](CO)O2)cc1F [FdUrd, 5-fluoro-2'-deoxyuridine] | – | – | – | – | – | – | – | – | – | – | – | – | % Growth Inhibition of DAN cells in culture ([1]; FdUrd 0.1 μM alone, no potentiator): 20%; % Growth Inhibition of DAN cells in culture ([1]; FdUrd 0.3 μM alone, no potentiator): 34%; inhibition at 0.1 µM ([1]; Homo sapiens, FdUrd 0.1 μM alone, no potentiator): 20.2 ± 1.1%; inhibition at 0.3 µM ([1]; Homo sapiens, FdUrd 0.3 μM alone, no potentiator): 33.8 ± 1.3%; inhibition at 1 µM ([1]; Homo sapiens, FdUrd 1.0 μM alone, no potentiator): 66 ± 1.4%
– | – | – | O=c1[nH]c(=O)n(COCCO)cc1Cc1ccccc1 [BAU, 5-benzylacyclouridine] | – | – | – | – | – | not very water soluble | enhance the antineoplastic activity of FdUrd | inhibit the cleavage of FdUrd | enhance the antineoplastic activity of FdUrd | enhance the antineoplastic activity of FdUrd | particularly effective | enhance the antineoplastic activity of FdUrd | –
water soluble | 1600 nM | 2500 nM | O=c1[nH]c(=O)n(COC(CO)CO)cc1Cc1ccccc1 [HM-BAU, 5-Benzyl-1-[(1,3-dihydroxy-2-propoxy)methyl]uracil] | significantly potentiated | 63.4 ± 1.1% and 63% | 67.8 ± 1.7% and 68% | do not affect the growth of DAN in culture | excellent inhibitors of this enzyme and superior to BAU and BBAU | – | – | – | – | – | – | – | –
